Tests used:
[1] = molecular target: T1, recombinant human ALK5 (TGF-βR1) protein (Homo sapiens, UniProt P36897); assay: Biochemical ALK5 (TGF-βR1) assay to measure pKi (LANCE Ultra ULight kinase assay); conditions: apparent pKi from pIC50 by Cheng-Prusoff, read-out: ALK5 pKi (converted)
T1 construct: purchased Life Technologies PR9075A
T1 sequence (P36897 34-503): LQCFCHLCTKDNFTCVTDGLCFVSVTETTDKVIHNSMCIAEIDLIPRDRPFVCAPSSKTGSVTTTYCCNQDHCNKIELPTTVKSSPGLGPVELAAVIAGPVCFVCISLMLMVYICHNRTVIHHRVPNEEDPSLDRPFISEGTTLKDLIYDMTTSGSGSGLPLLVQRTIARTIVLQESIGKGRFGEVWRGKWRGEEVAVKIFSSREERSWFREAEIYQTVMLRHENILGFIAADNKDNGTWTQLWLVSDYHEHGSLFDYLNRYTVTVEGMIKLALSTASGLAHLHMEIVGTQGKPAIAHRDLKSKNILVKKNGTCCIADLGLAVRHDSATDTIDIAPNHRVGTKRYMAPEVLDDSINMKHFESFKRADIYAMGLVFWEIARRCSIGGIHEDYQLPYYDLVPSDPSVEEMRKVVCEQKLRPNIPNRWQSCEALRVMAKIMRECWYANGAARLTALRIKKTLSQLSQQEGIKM
Method in brief: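 Compounds (10 μM to 25 pM) were preincubated 60 min at room temperature with enzyme, then reactions were started with ATP (125 μM stock, 5× final) and run 60 min at 37 °C. EDTA-containing Eu-anti-phospho-Topo IIα (Thr1342) antibody stopped the reaction; TR-FRET read at 665 nm. pIC50 from 4-parameter fit, converted to pKi via Cheng-Prusoff.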

[2] = tested on: TGF-β-stimulated SMAD3 phosphorylation in BEAS-2B cells; assay: Cellular ALK5 potency assay, inhibition of TGF-β stimulated pSMAD3 formation in BEAS-2B cells; format: cell-based; conditions: Homo sapiens; inhibition of TGF-β stimulated pSMAD3 formation, BEAS-2B cells; read-out: BEAS2B pIC50 (converted)
Method in brief: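 BEAS-2B human lung epithelial cells, seeded overnight, were pre-treated with compound in HBSS/25 mM HEPES/1% BSA for 1 h at 37 °C, then stimulated with TGF-β (final 10 ng/mL) for 30 min. Lysates were assayed for pSMAD3 by AlphaLISA; pIC50 came from dose-dependent signal change versus TGF-β-stimulated untreated cells.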

Structure (SMILES)	Ki [1] [nM]	IC50 [2] [nM]
Cc1cccc(-c2[nH]cnc2-c2ccc3ncc(-c4ccc(C(=O)O[C@H]5CCNC5)nc4)cc3c2)n1 [Compound 1122, [(3S)-pyrrolidin-3-yl] 5-[6-[5-(6-methyl-2-pyridyl)-1H-imidazol-4-yl]-3-quinolyl]pyridine-2-carboxylate]	0.0398 to 0.316	200 to 1260
Cc1cccc(-c2[nH]cnc2-c2ccc3ncc(-c4csc(C(=O)OCCN5CC[C@@H](N)C5)c4)cc3c2)n1 [Compound 1220, 2-[(3R)-3-aminopyrrolidin-1-yl]ethyl 4-[6-[5-(6-methyl-2-pyridyl)-1H-imidazol-4-yl]-3-quinolyl]thiophene-2-carboxylate]	0.0398 to 0.316	25.1 to 158
CNC1CC2CCC(C1)N2c1cnc2ccc(-c3c[nH]nc3-c3cccc(C)n3)nc2c1 (stereo not shown) [Compound 248, N-methyl-8-[6-[3-(6-methyl-2-pyridyl)-1H-pyrazol-4-yl]-1,5-naphthyridin-3-yl]-8-azabicyclo[3.2.1]octan-3-amine]	3.98 to 31.6	200 to 1260
Cc1cccc(-c2[nH]cnc2-c2ccc3ncc(C4=CC[C@@H](NC(=O)[C@@H]5CCCN5)CC4)cc3c2)n1 [Compound 775, (2S)-N-[(1S)-4-[6-[5-(6-methyl-2-pyridyl)-1H-imidazol-4-yl]-3-quinolyl]cyclohex-3-en-1-yl]pyrrolidine-2-carboxamide]	0.0398 to 0.316	25.1 to 158
Cc1cccc(-c2[nH]cnc2-c2ccc3ncc(-c4ncc(C(=O)O)s4)cc3c2)n1 [Compound 1017, 2-(6-(5-(6-methylpyridin-2-yl)-1H-imidazol-4-yl)quinolin-3-yl)thiazole-5-carboxylic acid]	0.0398 to 0.316	1580 to 10000
Cc1nc(-c2[nH]cnc2-c2ccc3ncc(-c4cn5c(n4)CNCC5)cc3n2)ccc1F [Compound 91, 2-[5-(5-fluoro-6-methyl-2-pyridyl)-1H-imidazol-4-yl]-7-(5,6,7,8-tetrahydroimidazo[1,2-a]pyrazin-2-yl)-1,5-naphthyridine]	0.0398 to 0.316	25.1 to 158
Cc1cccc(-c2nc3ccccn3c2-c2ccc3ncc(-c4cn[nH]c4)cc3c2)n1 [Compound 592, 6-[2-(6-methyl-2-pyridyl)imidazo[1,2-a]pyridin-3-yl]-3-(1H-pyrazol-4-yl)quinoline]	< 0.0316	< 20
Cc1cccc(-c2[nH]cnc2-c2ccc3ncc(-c4csc(C(=O)OC[C@@H]5CCC[C@H](N)C5)c4)cc3c2)n1 (racemic) [Compound 1197, [rac-(1R,3S)-3-aminocyclohexyl]methyl 4-[6-[5-(6-methyl-2-pyridyl)-1H-imidazol-4-yl]-3-quinolyl]thiophene-2-carboxylate]	0.0398 to 0.316	25.1 to 158
Cc1cccc(-c2[nH]cnc2-c2ccc3ncc(C4=CC[C@@H](N)CC4)cc3c2)n1 [Compound 171, (1S)-4-[6-[5-(6-methyl-2-pyridyl)-1H-imidazol-4-yl]-3-quinolyl]cyclohex-3-en-1-amine]	< 0.0316	< 20
Cc1cccc(-c2[nH]cnc2-c2ccc3ncc(C4=CCC5(CCNC(=O)C5)CC4)cc3c2)n1 (stereo not shown) [Compound 1206, 9-[6-[5-(6-methyl-2-pyridyl)-1H-imidazol-4-yl]-3-quinolyl]-3-azaspiro[5.5]undec-9-en-4-one]	< 0.0316	25.1 to 158
Cc1cccc(-c2[nH]cnc2-c2ccc3ncc(NCCN4CCN(C(C)C)CC4)cc3c2)n1 [Compound 467, N-[2-(4-isopropylpiperazin-1-yl)ethyl]-6-[5-(6-methyl-2-pyridyl)-1H-imidazol-4-yl]quinolin-3-amine]	0.0398 to 0.316	25.1 to 158
Cc1cccc(-c2[nH]ncc2-c2ccc3ncc(C(=O)O[C@H]4CC[C@@](C)(N)CC4)cc3c2)n1 [Compound 1177, (4-amino-4-methyl-cyclohexyl) 6-[5-(6-methyl-2-pyridyl)-1H-pyrazol-4-yl]quinoline-3-carboxylate]	0.0398 to 0.316	25.1 to 158

The next lines start with results.

Ki [1] [nM]	Structure (SMILES)	IC50 [2] [nM]
0.0398 to 0.316	CCOC(=O)Cn1cc(-c2cnc3ccc(-c4c[nH]nc4-c4cccc(C)n4)nc3c2)nn1 [Compound 76, ethyl 2-[4-[6-[3-(6-methyl-2-pyridyl)-1H-pyrazol-4-yl]-1,5-naphthyridin-3-yl]triazol-1-yl]acetate]	25.1 to 158
< 0.0316	Cc1cccc(-c2n[nH]cc2-c2ccc3ncc(-c4cnn(CCN)c4)cc3n2)n1 [Compound 305, 2-[4-[6-[3-(6-methyl-2-pyridyl)-1H-pyrazol-4-yl]-1,5-naphthyridin-3-yl]pyrazol-1-yl]ethanamine]	25.1 to 158
0.398 to 3.16	Cc1cccc(-c2n[nH]cc2-c2ccc3ncc(C4CCNCC4)cc3n2)n1 [Compound 470, 2-[3-(6-methyl-2-pyridyl)-1H-pyrazol-4-yl]-7-(4-piperidyl)-1,5-naphthyridine]	25.1 to 158
0.0398 to 0.316	Cc1cccc(-c2n[nH]cc2-c2ccc3ncc(NCCN4CCN(C)CC4)cc3n2)n1 [Compound 619, N-[2-(4-methylpiperazin-1-yl)ethyl]-6-[3-(6-methyl-2-pyridyl)-1H-pyrazol-4-yl]-1,5-naphthyridin-3-amine]	25.1 to 158
0.0398 to 0.316	Cc1cccc(-c2n[nH]cc2-c2ccc3ncc(N(C)C4CCNC4)cc3n2)n1 (racemic) [Compound 242, N-methyl-6-[3-(6-methyl-2-pyridyl)-1H-pyrazol-4-yl]-N-[rac-(3R)-pyrrolidin-3-yl]-1,5-naphthyridin-3-amine]	25.1 to 158
0.0398 to 0.316	Cc1cccc(-c2n[nH]cc2-c2ccc3ncc(N4CCNC(C(N)=O)C4)cc3n2)n1 (racemic) [Compound 497, rac-(2S)-4-[6-[3-(6-methyl-2-pyridyl)-1H-pyrazol-4-yl]-1,5-naphthyridin-3-yl]piperazine-2-carboxamide]	200 to 1260
< 0.0316	Cc1nc(-c2n[nH]cc2-c2ccc3ncc(N4CCC(N5CCN(C)CC5)CC4)cc3n2)ccc1F [Compound 539, 2-[3-(5-fluoro-6-methyl-2-pyridyl)-1H-pyrazol-4-yl]-7-[4-(4-methylpiperazin-1-yl)-1-piperidyl]-1,5-naphthyridine]	25.1 to 158
0.0398 to 0.316	Cc1cccc(-c2n[nH]cc2-c2ccc3ncc(N4CCN[C@@H](C(=O)N(C)C)C4)cc3n2)n1 [Compound 204, (2R)-N,N-dimethyl-4-[6-[3-(6-methyl-2-pyridyl)-1H-pyrazol-4-yl]-1,5-naphthyridin-3-yl]piperazine-2-carboxamide]	25.1 to 158
< 0.0316	CNCCn1cc(-c2cnc3ccc(-c4c[nH]nc4-c4ccc(F)c(C)n4)nc3c2)cn1 [Compound 477, 2-[4-[6-[3-(5-fluoro-6-methyl-2-pyridyl)-1H-pyrazol-4-yl]-1,5-naphthyridin-3-yl]pyrazol-1-yl]-N-methyl-ethanamine]	< 20
< 0.0316	Cc1cccc(-c2n[nH]cc2-c2ccc3ncc(N4CCNCC4)cc3n2)n1 [Compound 73, 2-[3-(6-methyl-2-pyridyl)-1H-pyrazol-4-yl]-7-piperazin-1-yl-1,5-naphthyridine]	< 20
0.0398 to 0.316	Cc1cccc(-c2n[nH]cc2-c2ccc3nccc(-c4cn(-c5ccccc5)nn4)c3n2)n1 [Compound 854, 2-[3-(6-methyl-2-pyridyl)-1H-pyrazol-4-yl]-8-(1-phenyltriazol-4-yl)-1,5-naphthyridine]	25.1 to 158
